# From patent publication US20040048838A1, “Meiosis regulating compounds” (priority 1995, published 2004)
row,Compound,melting point
1,CC(C)CCC[C@@H](C)[C@H]1CC=C2C3=C(CC[C@@]21C)[C@@]1(C)CC=CCC1CC3 (stereo partly drawn),104.7 °C
2,C[C@H](CCC(=O)N(C)C)[C@H]1CC=C2C3=C(CC[C@@]21C)[C@@]1(C)CC[C@H](O)C(C)(C)[C@@H]1CC3,192 to 195 °C
3,C[C@@H](CO)CCC[C@@H](C)[C@H]1CC=C2C3=C(CC[C@@]21C)[C@@]1(C)CC[C@H](O)C(C)(C)[C@@H]1CC3,180 to 181 °C
4,C[C@@H](CCl)CCC[C@@H](C)[C@H]1CC=C2C3=C(CC[C@@]21C)[C@@]1(C)CC[C@H](O)C(C)(C)[C@@H]1CC3,145 to 145.5 °C
5,C[C@@H](CI)CCC[C@@H](C)[C@H]1CC=C2C3=C(CC[C@@]21C)[C@@]1(C)CC[C@H](O)C(C)(C)[C@@H]1CC3,148 °C
6,CC(C)CCC[C@@H](C)[C@H]1[C@@H](O)C[C@H]2C3=CC=C4C(C)(C)[C@@H](O)CC[C@]4(C)[C@H]3CC[C@]12C,171 to 173 °C
